ChEMBL document CHEMBL5244223, “l,8-Naphthalimide based DNA intercalators and anticancer agents. A systematic review from 2007 to 2017” (Eur J Med Chem, 2018)

Columns and labels:
HepG2 = experiment: Antiproliferative activity against human HepG2 cells assessed as inhibition of cell proliferation incubated for 48 hrs by MTT assay; type: functional, cell-based; conditions: HepG2, 48 h
HCT-116 = experiment: Antiproliferative activity against human HCT-116 cells assessed as inhibition of cell proliferation incubated for 48 hrs by MTT assay; type: functional, cell-based; conditions: HCT-116, 48 h
MDA-MB-231 = experiment: Antiproliferative activity against human MDA-MB-231 cells assessed as inhibition of cell proliferation incubated for 48 hrs by MTT assay; type: functional, cell-based; conditions: MDA-MB-231, 48 h
K562 = experiment: Antiproliferative activity against human K562 cells assessed as inhibition of cell proliferation incubated for 48 hrs by MTT assay; type: functional, cell-based; conditions: K562, 48 h
[1] = Antiproliferative activity against human HMEC-1 cells assessed as inhibition of cell proliferation incubated for 48 hrs by coulter counter assay; type: toxicity, cell-based
CCRF-CEM = experiment: Antiproliferative activity against human CEM cells assessed as inhibition of cell proliferation incubated for 48 hrs by coulter counter assay; type: functional, cell-based
L1210 = experiment: Antiproliferative activity against mouse L1210 cells assessed as inhibition of cell proliferation incubated for 48 hrs by coulter counter assay; type: functional, cell-based; conditions: L1210, 48 h
HeLa [2] = experiment: Antiproliferative activity against human HeLa cells assessed as inhibition of cell proliferation incubated for 48 hrs by coulter counter assay; type: functional, cell-based
SMMC-7721 = experiment: Antiproliferative activity against human SMMC-7721 cells assessed as inhibition of cell proliferation incubated for 48 hrs by MTT assay; type: functional, cell-based; conditions: SMMC-7721, 48 h
A549 = experiment: Cytotoxicity against human A549 cells assessed as inhibition of cell growth incubated for 48 hrs by MTT assay; type: functional, cell-based; conditions: A549, 48 h
HeLa [3] = experiment: Cytotoxicity against human HeLa cells assessed as inhibition of cell growth incubated for 48 hrs by MTT assay; type: functional, cell-based

SMILES	IC50 (HepG2) [µM]	IC50 at 48 h [1] [µM]	IC50 (CCRF-CEM) [µM]	IC50 (L1210) [µM]	IC50 (HeLa [2]) [µM]	other results
NCCCCNCCCCNCCCCNCC(=O)NCCCN1C(=O)c2cccc3cccc(c23)C1=O	2.86					IC50 (HCT-116): 2.86 µM; IC50 (MDA-MB-231): 2.86 µM; IC50 (K562): 2.86 µM
CCOP(=O)(CCOCn1cc(CN2C(=O)c3cccc4cccc(c34)C2=O)nn1)OCC		> 250	> 250	> 250	> 250	
CCCOC(=O)c1ccc2c3c(cccc13)C(=O)N(CCN(C)C)C2=O	> 50					IC50 (HCT-116): > 50 µM; IC50 (SMMC-7721): > 50 µM; IC50 (K562): > 50 µM
CCOP(=O)(CCn1cc(CN2C(=O)c3cccc4cc([N+](=O)[O-])cc(c34)C2=O)nn1)OCC		> 250	> 250	> 250	> 250	
CCOP(=O)(CC(O)Cn1cc(CN2C(=O)c3cccc4cccc(c34)C2=O)nn1)OCC (configuration not stated)		> 250	> 250	> 250	> 250	
CCOP(=O)(CCOCCn1cc(CN2C(=O)c3cccc4cc([N+](=O)[O-])cc(c34)C2=O)nn1)OCC		> 250	> 250	> 250	> 250	
COc1cc(OC)cc(-c2cc(C(F)(F)F)nn2-c2ccc3c4c(cccc24)C(=O)N(CCN(C)C)C3=O)c1						IC50 (A549): 5.06 µM; IC50 (HeLa [3]): 5.06 µM
NCCCNCC(=O)NCCCN1C(=O)c2cccc3cccc(c23)C1=O	2.86					IC50 (HCT-116): 2.86 µM; IC50 (MDA-MB-231): 2.86 µM; IC50 (K562): 2.86 µM
CN(C)CCN1C(=O)c2cccc3c2c(cc2c(NCCCCN4CCCC4)ncnc23)C1=O	1.12					IC50 (MDA-MB-231): 1.12 µM; IC50 (SMMC-7721): 1.12 µM
CCOP(=O)(Cn1cc(CN2C(=O)c3cccc4c(Br)ccc(c34)C2=O)nn1)OCC		> 250	> 250	> 250	> 250	
CCOP(=O)(CCOCCn1cc(CN2C(=O)c3cccc4cccc(c34)C2=O)nn1)OCC		> 250	> 250	> 250	> 250	
CN(C)CCN1C(=O)c2cccc3c2c(cc2c(NCCCNCCCN)ncnc23)C1=O	1.57					IC50 (MDA-MB-231): 1.57 µM; IC50 (SMMC-7721): 1.57 µM
CCCCN1C(=O)c2cccc3c2c(cc2c(=O)[nH]cnc23)C1=O	2.64					IC50 (MDA-MB-231): 2.64 µM; IC50 (SMMC-7721): 2.64 µM
CCOP(=O)(CCCCn1cc(CN2C(=O)c3cccc4cc([N+](=O)[O-])cc(c34)C2=O)nn1)OCC		> 250	> 250	> 250	> 250	
CCOP(=O)(CCCn1cc(CN2C(=O)c3cccc4cc([N+](=O)[O-])cc(c34)C2=O)nn1)OCC		> 250	> 250	> 250	> 250	
CCOP(=O)(CCCCn1cc(CN2C(=O)c3cccc4cccc(c34)C2=O)nn1)OCC		> 250	> 250	> 250	> 250	
CCOP(=O)(CCOCn1cc(CN2C(=O)c3cccc4cc([N+](=O)[O-])cc(c34)C2=O)nn1)OCC		> 250	> 250	> 250	> 250	
NCCCCN1C(=O)c2cccc3c2c(cc2c(=O)[nH]cnc23)C1=O	2.64					IC50 (MDA-MB-231): 2.64 µM; IC50 (SMMC-7721): 2.64 µM
CN(C)CCN1C(=O)c2cccc3c(-n4nc(C(F)(F)F)cc4-c4ccccc4)ccc(c23)C1=O						IC50 (A549): 5.06 µM; IC50 (HeLa [3]): 5.06 µM
CCOc1cc(OCC)cc(-c2cc(C(F)(F)F)nn2-c2ccc3c4c(cccc24)C(=O)N(CCN(C)C)C3=O)c1						IC50 (A549): 5.06 µM; IC50 (HeLa [3]): 5.06 µM
CCCOc1ccccc1-c1cc(C(F)(F)F)nn1-c1ccc2c3c(cccc13)C(=O)N(CCN(C)C)C2=O						IC50 (A549): 5.06 µM; IC50 (HeLa [3]): 5.06 µM
CN(C)CCN1C(=O)c2cccc3c2c(cc2c(=O)[nH]cnc23)C1=O	2.64					IC50 (MDA-MB-231): 2.64 µM; IC50 (SMMC-7721): 2.64 µM
CCOP(=O)(Cn1cc(CN2C(=O)c3cccc4cc([N+](=O)[O-])cc(c34)C2=O)nn1)OCC		> 250	> 250	> 250	> 250	
CCOP(=O)(CC(=O)NCn1cc(CN2C(=O)c3cccc4c(Br)ccc(c34)C2=O)nn1)OCC		> 250	> 250	> 250	> 250	
CCOP(=O)(CC(O)Cn1cc(CN2C(=O)c3cccc4c(Br)ccc(c34)C2=O)nn1)OCC (configuration not stated)		> 250	> 250	> 250	> 250	
COC(=O)c1ccc2c3c(cccc13)C(=O)N(CCN(C)C)C2=O	22.1					IC50 (HCT-116): > 50 µM; IC50 (SMMC-7721): 22.1 µM; IC50 (K562): > 50 µM
CCCCOc1ccc(-c2cc(C(F)(F)F)nn2-c2ccc3c4c(cccc24)C(=O)N(CCN(C)C)C3=O)cc1						IC50 (A549): 5.06 µM; IC50 (HeLa [3]): 5.06 µM
CCOP(=O)(CCCn1cc(CN2C(=O)c3cccc4cccc(c34)C2=O)nn1)OCC		> 250	> 250	> 250	> 250	
